In the assay the test system is reserpine-induced mice depression. The assay can be described thus: Reserpine-induced mice depression. In kind it is in vivo, ICR mouse. Further details: Awakening / Finger contact / Head touch / Fear / Autonomic activity / Eyelid closure / Upright: scale not given here. The procedure:
• Species: ICR mouse • Microbiological level: SPF • Quantity and sex of the animals purchased: male: 75; female: 75 • Quantity and sex of the animals used: male: 75; female: 75 • Body weight: 13-18 g when accepted
Group design: there were 50 pieces for each batch of animals and 3 batches in total; each batch of animals were randomly divided into 5 groups; low, middle and high-dose groups of the samples for test, blank control group and model group; a sample for test was tested per batch.
3.1 Animals were administrated via subcutaneous injection per day with doses of 4, 8 and 16 mg/kg for 6 d in total. 2 h later after the final administration, each animal was subcutaneously injected with 4 mg/kg reserpine except the blank control group; afterwards, indicators, such as, awakening, finger contact, fear, head touch, autonomic activity, upright and eyelid closure were determined 2 h later.
Data statistics and analysis were completed via a computer by SPSS 17.0 software and office 2016, and data statistics was inspected by Kruskal-Wallis. If the Kruskal-Wallis inspection result is significant ((P<0.05), multiple comparison inspection is further performed by a Mann-Whitney U nonparametric test method.

The mark [1] stands for this setting: high dose 16 mg/kg sc 6 d, 2 h after reserpine 4 mg/kg.
Where [2] appears, read: low dose 4 mg/kg sc 6 d, 2 h after reserpine 4 mg/kg.
Where [3] appears, read: middle dose 8 mg/kg sc 6 d, 2 h after reserpine 4 mg/kg.

Marks after values point to notes of the source that are not given here.

`O=C(Nc1cccc(Cl)c1)C1CCN(C(=O)c2cccc(O)c2)CC1` [MAGLZ-II-11]: where the note is “4, 8 and 16 mg/kg sc 6 d”, the “effect on reserpine-induced depression (conclusion)” value is listed as “has a certain effect”. Moreover, under setting [1], the Autonomic activity is reported as 1.8±1.66* *, the Awakening came out at 3.2±1.33, the Eyelid closure worked out at 2±1.26 and the Fear is on record as 0.2±0.60. Also, under setting [1], the Finger contact turned out to be 2±1.79, the Head touch stood at 2.6±1.56 and the Upright is 1±1.61* *. Under setting [2], the Autonomic activity is listed as 0.8±1.60, the Awakening was found to be 3±1.61, the Eyelid closure came to 1.2±0.98 and the Fear was determined as 0±0. Further, under setting [2], the Finger contact was 1.6±1.50 and the Head touch amounted to 1±1.34. In addition, under setting [3], the Autonomic activity is given as 0.8±1.60, the Awakening amounted to 2.6±1.56, the Eyelid closure was found to be 1.4±1.28 and the Fear is 0±0. Under setting [3], this molecule returned a Finger contact of 1.8±1.66 and a Head touch of 1.8±1.40.

Values taken from US20230090255A1, “MAGL INHIBITOR, PREPARATION METHOD THEREFOR AND USE THEREOF” (LUNAN PHARMACEUTICAL GROUP CORPORATION, priority 2019, published 2023).
